Patent publication US20240158350A1, “ESTER ANALOGS OF PSILOCIN, PROCESSES FOR THE PREPARATION THEREOF, AND METHODS OF USE” (Invyxis, Inc., priority 2022, published 2024)
Read-outs that look alike come from different tables or passages of the source.

Legend:
[1] = Single-dose oral pharmacokinetics in C57BL6 mice (plasma and brain); format: in vivo; conditions: for Cmax: read-out: Parent PK Cmax
Procedure: The single-dose pharmacokinetics of test compounds were analyzed relative to control (psilocin) in C57BL6 mice via oral (PO) administration. Test compound was dissolved in DMSO and transferred to a 15-mL tube, followed by addition of Tween-80, PEG-400, and water to final volume. The resulting formulation (0.3 mg/mL compound, in DMSO (1%), Tween-80 (5%), and PEG-400 (25%) in water (69%)) was vortexed for 2 min. and mixed by inversion.
Male C57BL6 mice (3× per compound, (at a weight ˜20g)) received a single dose (oral) of test compound at 3.0 mg/kg. Blood samples were collected pre-dose and at 0.083, 0.25, 0.5, 1, 2, 4, 8, 24-hour post-dose to yield approximately 20 μL of pooled plasma (3× mice) per time point. Brain tissues were collected at 2- and 8-hr post-dose. Brain was flushed with saline solution using a perfusion needle through the ascending aorta of the ventricle to remove any remaining blood prior to collection. Plasma and brain homogenate samples were stored at −80° C. prior to extraction for LC-MS/MS analysis.
Samples were analyzed by LC-MS/MS to quantify the amounts of test compound and control (psilocin). The calculation of the pharmacokinetic (PK) parameters (AUCt, AUCinf, Cmax, Tmax, T1/2, and Kel) can be performed using a non-compartmental analysis (trapezoidal method).

[2] = IP-One incubation stability (cell-treated stimulation medium, LC-MS); format: in vitro ADME; conditions: 2 μM, 60 min vs T0, 37° C., medium on CHO-K1 cells expressing 5-HT2A
Procedure: IP-One incubation. CHO-K1 cells expressing recombinant Serotonin receptor 5-HT2A (Perkin Elmer, Waltham, MA), were seeded in 96-well plates (˜80,000 cells/well) and treated with 28 μL (per well) of stimulation medium (IP-One HTRF® kit) containing test compounds (2 μM) for 1 hr in a CO2 incubator (5%) at 37° C. The cell-treated medium from 3 wells were pooled together to provide 40 μL for LC-MS analysis. Aliquots for each compound were collected at time zero (T0, 100% intact test compound) and 60-min. The incubated medium (40 μL) was quenched with 120 μL of acetonitrile containing 0.5 μM glyburide (IS), and the supernatant was collected by centrifugation (2500 rpm, 15 min.). LC-MS was performed using an Agilent MSD (electrospray in positive ionization) equipped with a Kinetic C18 reverse-column. The percent of test compound remaining is calculated using the ratio of the peak areas of intact test compound at 60 min. over T0. The percent of psilocin release is calculated by comparing the peak area of psilocin at 60 min. (for test compound) vs. peak area at T0 (2 μM psilocin). Results are summarized in Table 1, (rel to % parent detected; and % psilocin detected at 1 hr).

[3] = Stability in fasted state simulated gastric fluid (FaSSGF); format: in vitro ADME; conditions: 37° C., 60 min vs T0
Procedure: Fasted state simulated gastric fluid (FaSSGF). FaSSGF was prepared according to the manufacturer instructions (Biorelevant, UK). Test compounds (2 μL of 200 μM solution) were added to a 96-well plate containing 198 μL FaSSGF per well. The mixture was incubation in a thermomixer at 37° C. for 60 min. Sample aliquots were removed (40 μL, from T0 and 60 min.) and quenched with acetonitrile containing 0.5 μM glyburide (IS), and the supernatant collected by centrifugation (2500 rpm, 15 min.). LC-MS was performed using an Agilent MSD (electrospray in positive ionization) equipped with a Kinetic C18 reverse-column. The percent of test compound remaining was calculated using the ratio of the peak area of intact test compound at 60 min. over T0. The percent of psilocin release was calculated by comparing the peak area of psilocin at 60 min, (for test compound) vs. peak area at T0 (2 μM psilocin).

[4] = molecular target: human serotonin 5HT2A receptor (Homo sapiens, UniProt P28223); experiment: 5HT2A receptor radioligand displacement assay; parameters: key to the marks not given beside the values; conditions: displacement of [3H]-ketanserin or [3H]-LSD, HEK293 membranes
[5] = male, C57BL6, mouse, parent compound in brain, 2 h post-dose, 3.0 mg/kg PO, read-out: Parent PK [brain] 2 h
[6] = male, C57BL6, mouse, parent compound in plasma, 3.0 mg/kg PO

Sequence of human serotonin 5HT2A receptor (P28223 whole entry): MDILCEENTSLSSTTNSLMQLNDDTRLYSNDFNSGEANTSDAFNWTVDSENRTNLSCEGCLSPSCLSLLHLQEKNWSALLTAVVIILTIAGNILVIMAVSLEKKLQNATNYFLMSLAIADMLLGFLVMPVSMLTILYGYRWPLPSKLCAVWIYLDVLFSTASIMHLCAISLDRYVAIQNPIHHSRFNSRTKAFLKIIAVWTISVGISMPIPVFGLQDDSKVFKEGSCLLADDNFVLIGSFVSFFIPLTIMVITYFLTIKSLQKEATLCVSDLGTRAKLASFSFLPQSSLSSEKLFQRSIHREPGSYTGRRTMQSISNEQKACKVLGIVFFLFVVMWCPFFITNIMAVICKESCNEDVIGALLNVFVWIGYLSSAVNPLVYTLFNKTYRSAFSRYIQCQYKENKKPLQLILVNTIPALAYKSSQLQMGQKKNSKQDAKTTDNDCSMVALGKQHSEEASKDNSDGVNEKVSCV

| SMILES | % parent compound [2] [%] | % parent compound [3] [%] | Activity relative to psilocin [4] | also measured |
| --- | --- | --- | --- | --- |
| CN(C)CCc1c[nH]c2cccc(O)c12 [Psilocin, 4-hydroxy-N,N-dimethyltryptamine] | 87.4 | 72.2 | ++ | psilocin in the brain at 8-h post-dose ([1]; 8-h post-dose): No psilocin in the brain was detected; psilocin plasma concentration (estimate) ([1]; estimate based on other pharmacokinetic data): ~5 ng/mL; concentration at 2 h ([1]; male, C57BL6, mouse, brain, oral, 3 mg/kg, 2-h post-dose, range over animals, read-out: Psilocin concentration in the brain): 40 to 78 ng/g; Kp at 2 h ([1]; male, C57BL6, mouse, brain, oral, 3 mg/kg, 2-h post-dose, with estimated plasma concentration of 5 ng/mL, read-out: mean brain/plasma (B/P) ratio): 11.2 ± 4.3; concentration at 2 h [1, 5]: 54 ng/mL; Cmax [1, 6]: ~5 ng/mL |
| CN(C)CCc1c[nH]c2cccc(OC(=O)C(C)(C)C(=O)Oc3cccc4[nH]cc(CCN(C)C)c34)c12 [Test Compound A, bis(3-(2-(dimethylamino)ethyl)-1H-indol-4-yl) 2,2-dimethylmalonate] |  |  |  | PK profile (absorption, elimination) ([1]; 3.0 mg/kg PO, in words): quick absorption of the compound, but with a long elimination phase; brain penetration of the parent compound ([1]; 3.0 mg/kg PO, in words): delayed brain penetration of the parent compound; concentration at 2 h [1, 5]: 0.5 ng/mL; AUC ([1]; male, C57BL6, mouse, parent compound in plasma, 3.0 mg/kg PO, read-out: Parent PK AUC): 39 ng·h/mL; Cmax [1, 6]: 4.2 ng/mL; Parent [brain] at 8 h ([1]; parent compound in brain, 8 h post-dose (footnote)): **[brain] at 8 h is 6 ng/mL. |
| CN(C)CCc1c[nH]c2cccc(OC(=O)CCCC(=O)Oc3cccc4[nH]cc(CCN(C)C)c34)c12 [Test Compound B, bis(3-(2-(dimethylamino)ethyl)-1H-indol-4-yl) glutarate] |  |  |  | PK profile (absorption, elimination) ([1]; 3.0 mg/kg PO, in words): good PK profile as a psilocin prodrug; parent compound detected in plasma or brain samples ([1]; 3.0 mg/kg PO, in words): no parent compound was detected in any of the plasma or brain samples; concentration at 2 h [1, 5]: 0 ng/mL; psilocin detected after administration of test compound ([1]; plasma and brain, in words): psilocin was detected in quantifiable amounts |
| CN(C)CCc1c[nH]c2cccc(OC(=O)CCC(=O)Oc3cccc4[nH]cc(CCN(C)C)c34)c12 [drawing 41] | 61.7 |  |  |  |
| CN(C)CCc1c[nH]c2cccc(OC(=O)c3ccc(Br)cc3)c12 [drawing 42] | 9.1 |  |  |  |
| CN(C)CCc1c[nH]c2cccc(OC(=O)C(C)(C)C(=O)Oc3cccc4[nH]cc(CCN(C)C)c34)c12 [drawing 43] | 86.8 |  |  |  |
| CN(C)CCc1c[nH]c2cccc(OC(=O)CCCC(=O)Oc3cccc4[nH]cc(CCN(C)C)c34)c12 [drawing 44] | 71.5 |  |  |  |
| CN(C)CCc1c[nH]c2cccc(OC(=O)c3cccc(C(=O)Oc4cccc5[nH]cc(CCN(C)C)c45)c3)c12 [drawing 45] | 52.1 |  |  |  |
| CN(C)CCc1c[nH]c2cccc(OC(=O)[C@H]3C[C@@H]3C(=O)Oc3cccc4[nH]cc(CCN(C)C)c34)c12 [drawing 46] | 76.1 |  |  |  |
| CN(C)CCc1c[nH]c2cccc(OC(=O)c3ccccc3F)c12 [drawing 47] | 11.4 |  |  |  |
| CN(C)CCc1c[nH]c2cccc(OC(=O)CCC(=O)Oc3cccc4[nH]cc(CCN(C)C)c34)c12 [drawing 49] |  | 97.1 |  |  |
| CN(C)CCc1c[nH]c2cccc(OC(=O)c3ccc(Br)cc3)c12 [drawing 50] |  | 93.8 |  |  |
| CN(C)CCc1c[nH]c2cccc(OC(=O)C(C)(C)C(=O)Oc3cccc4[nH]cc(CCN(C)C)c34)c12 [drawing 51] |  | 94.7 |  |  |
| CN(C)CCc1c[nH]c2cccc(OC(=O)CCCC(=O)Oc3cccc4[nH]cc(CCN(C)C)c34)c12 [drawing 52] |  | 94.5 |  |  |
| CN(C)CCc1c[nH]c2cccc(OC(=O)c3cccc(C(=O)Oc4cccc5[nH]cc(CCN(C)C)c45)c3)c12 [drawing 53] |  | 93.5 |  |  |
| CN(C)CCc1c[nH]c2cccc(OC(=O)[C@H]3C[C@@H]3C(=O)Oc3cccc4[nH]cc(CCN(C)C)c34)c12 [drawing 54] |  | 95.5 |  |  |
| CN(C)CCc1c[nH]c2cccc(OC(=O)c3ccccc3F)c12 [drawing 55] |  | 97.5 |  |  |
| CN(C)CCc1c[nH]c2cccc(OC(=O)CCC(=O)Oc3cccc4[nH]cc(CCN(C)C)c34)c12 [drawing 57] |  |  | +++ |  |
| CN(C)CCc1c[nH]c2cccc(OC(=O)c3ccc(Br)cc3)c12 [drawing 58] |  |  | ++ |  |
| CN(C)CCc1c[nH]c2cccc(OC(=O)C(C)(C)C(=O)Oc3cccc4[nH]cc(CCN(C)C)c34)c12 [drawing 59] |  |  | +++ |  |
| CN(C)CCc1c[nH]c2cccc(OC(=O)CCCC(=O)Oc3cccc4[nH]cc(CCN(C)C)c34)c12 [drawing 60] |  |  | +++ |  |
| CN(C)CCc1c[nH]c2cccc(OC(=O)c3cccc(C(=O)Oc4cccc5[nH]cc(CCN(C)C)c45)c3)c12 [drawing 61] |  |  | +++ |  |
| CN(C)CCc1c[nH]c2cccc(OC(=O)[C@H]3C[C@@H]3C(=O)Oc3cccc4[nH]cc(CCN(C)C)c34)c12 [drawing 62] |  |  | +++ |  |
| CN(C)CCc1c[nH]c2cccc(OC(=O)c3ccccc3F)c12 [drawing 63] |  |  | ++ |  |
